Reference: patent EP3985010A1, “SPIROCYCLIC INHIBITORS OF HEPATITIS B VIRUS” (priority 2020, dated 2022)

Test system: HBV
Assay: Anti-HBV activity in vitro: quantification of extracellular HBV DNA by direct qPCR in HepAD38 cells
Format: cell-based
Details: Hepatitis B virus, doxycycline-free medium, 96 hours at 37°C, 8-point dose-response curve, read-out: HBV inh EC50
Description: HepAD38 cell line (Ladner et al., Antimicrob Agents Chemother, 1997, 41, 1715-20) was used for HBV inhibition assays. HepAD38 is a subclone, derived from hepatoblastoma cell line HepG2 (ATCC® Number: HB-8065™), that expresses HBV genome under the transcriptional control of a tetracycline-responsive promoter in a TET-OFF system: addition of doxycycline, an antibiotic belonging to the class of tetracycline, suppresses HBV replication, while its removal switches on the process allowing HBV viral particles release in the cell supernatant. HepAD38 cell line is maintained in DMEM/F12, supplemented with 10% of fetal bovine serum, 1% of glutamine, 1% of penicillin/streptomycin, 0.4 mg/ml G418 and 0,3 ug/ml tetracycline. For the HBV inhibition assay, doxycycline-free medium is used in order to allow virion production.
HBV inhibition activity in vitro was performed in 96 multiwell plates. During the initial (primary) screening, compounds were first tested in triplicates at concentrations of 0.02 µM, 0.1µM, 0.5µM and 1µM. For selected compounds, an 8-point dose-response curve was obtained using 1:2 serial dilutions (starting from 0.01µM, 0.1µM, 0.4µM or 5 µM, depending on the degree of inhibition observed during the primary screening). From the dose-response curves, half maximal effective concentration (EC50) could be calculated (see also below).
In more detail, compounds - typically dissolved in DMSO stock solutions - were diluted to 2x the final desired concentration in 100 µl of the above medium (without doxycycline) and plated in three replicates in the 96-well plates.
Simultaneously, HepAD38 cells - extensively pre-washed in doxycycline-free medium in order to induce HBV production - were suspended at 2^∗10^4 cells in 100 µl of doxycycline-free medium and added to each well of the plate, to yield a final assay volume of 200 µl DMSO - used for stock solutions and compounds dilutions - which was always present in the assays at a final concentration of 0.5%.
Plates were then incubated 96 hours at 37°C and then subjected to cell viability assays and extracellular HBV quantification, in order to evaluate both the cytotoxic potential and the antiviral activity of compounds. Cytotoxicity was assessed by a commercial fluorescence assay that measures the metabolic activity of cells, directly related to cell viability (Cell Titer Blue, Promega). Anti-HBV activity was evaluated by quantification of extracellular HBV DNA with direct qPCR. In particular, supernatant was collected and centrifuged for cell debris clarification, viral DNA was extracted from virions by addition of lysis buffer (1 mM 1,4-dithiothreitol, 0.2% sodium dodecyl sulphate) and incubated at 95°C for 10 min. Samples were then diluted 1:40 and real time PCR amplification was performed with SYBR green assay (Power SYBR™ Green PCR Master Mix-Thermo Fisher Scientific) and specific HBV primer (HBV-DF:5'-[…]-3' (SEQ ID No. 1), HBV-DR:5'-[…]-3' (SEQ ID No. 2)).
Antiviral activity data for each compound are reported as EC50 value (see Table 1 legend). Excel and Graphpad Prism programs are typically used for data elaboration and EC50 calculation.

Row | Compound | EC50 [nM]
1 | Cn1cc2c(c1C(=O)Nc1ccc(F)c(Cl)c1)OCC1(CCN(C(=O)C(=O)NCC(F)(F)F)CC1)NS2(=O)=O [Example E13, N-(3-chloro-4-fluorophenyl)-7'-methyl-1-(2-oxo-2-((2,2,2-trifluoroethyl)amino)acetyl)-2'H,4'H,7'H-spiro[piperidine-4,3'-pyrrolo[3,4-b][1,4,5]oxathiazepine]-6'-carboxamide 1',1'-dioxide] | < 500
2 | C[C@H](NC(=O)C(=O)N1CC2(COc3c(cn(C)c3C(=O)Nc3ccc(F)c(Cl)c3)S(=O)(=O)N2)C1)C(F)(F)F [Example E16, (S)-N-(3-chloro-4-fluorophenyl)-7'-methyl-1-(2-oxo-2-((1,1,1-trifluoropropan-2-yl)amino)acetyl)-2'H,4'H,7'H-spiro[azetidine-3,3'-pyrrolo[3,4-b][1,4,5]oxathiazepine]-6'-carboxamide 1',1'-dioxide] | < 500
3 | C[C@H](NC(=O)C(=O)N1CCC2(CC1)COc1c(cn(C)c1C(=O)Nc1ccc(F)c(C(F)F)c1)S(=O)(=O)N2)C(F)(F)F [Example E14, (S)-N-(3-(difluoromethyl)-4-fluorophenyl)-7'-methyl-1-(2-oxo-2-((1,1,1-trifluoropropan-2-yl)amino)acetyl)-2'H,4'H,7'H-spiro[piperidine-4,3'-pyrrolo[3,4-b][1,4,5]oxathiazepine]-6'-carboxamide 1',1'-dioxide] | < 500
4 | C[C@@H](NC(=O)C(=O)N1CC[C@@]2(COc3c(cn(C)c3C(=O)Nc3ccc(F)c(Cl)c3)S(=O)(=O)N2)C1)C(F)(F)F [Example E5, (S)-N-(3-chloro-4-fluorophenyl)-7'-methyl-1-(2-oxo-2-(((R)-1,1,1-trifluoropropan-2-yl)amino)acetyl)-2'H,4'H,7'H-spiro[pyrrolidine-3,3'-pyrrolo[3,4-b][1,4,5]oxathiazepine]-6'-carboxamide 1',1'-dioxide] | < 500
5 | C[C@@H](NC(=O)C(=O)N1CC2(COc3c(c(Cl)n(C)c3C(=O)Nc3ccc(F)c(C(F)F)c3)S(=O)(=O)N2)C1)C(F)(F)F [Example E32, (R)-8'-chloro-N-(3-(difluoromethyl)-4-fluorophenyl)-7'-methyl-1-(2-oxo-2-((1,1,1-trifluoropropan-2-yl)amino)acetyl)-2'H,4'H,7'H-spiro[azetidine-3,3'-pyrrolo[3,4-b][1,4,5]oxathiazepine]-6'-carboxamide 1',1'-dioxide] | < 500
6 | C[C@@H](NC(=O)C(=O)N1CC2(COc3c(c(Cl)n(C)c3C(=O)Nc3ccc(F)c(Cl)c3)S(=O)(=O)N2)C1)C(F)(F)F [Example E31, (R)-8'-chloro-N-(3-chloro-4-fluorophenyl)-7'-methyl-1-(2-oxo-2-((1,1,1-trifluoropropan-2-yl)amino)acetyl)-2'H,4'H,7'H-spiro[azetidine-3,3'-pyrrolo[3,4-b][1,4,5]oxathiazepine]-6'-carboxamide 1',1'-dioxide] | < 500
7 | Cn1cc2c(c1C(=O)Nc1ccc(F)c(C(F)F)c1)OCC1(CCN(C(=O)C(=O)NC(C)(C)C(F)(F)F)CC1)NS2(=O)=O [Example E15, N-(3-(difluoromethyl)-4-fluorophenyl)-7'-methyl-1-(2-oxo-2-((1,1,1-trifluoro-2-methylpropan-2-yl)amino)acetyl)-2'H,4'H,7'H-spiro[piperidine-4,3'-pyrrolo[3,4-b][1,4,5]oxathiazepine]-6'-carboxamide 1',1'-dioxide] | < 500
